What was measured:
[1] = refractive index (Na D-line) (dimensionless); mn = molality of the nth substance listed, in mol/kg; settings: 298.15 K, 101 kPa, Liquid, Standard Abbe refractometry
[2] = mn = molality of the nth substance listed, in mol/kg; settings: 101 kPa, Liquid, Vibrating tube method

O [water] + CC(=O)NCCCCCCNC(C)=O
Settings	refractive index
[1], m2 = 0	1.332

OC[C@H]1O[C@@](CO)(O[C@H]2O[C@H](CO)[C@@H](O)[C@H](O)[C@H]2O)[C@@H](O)[C@@H]1O [D-sucrose] + O
[1]
Settings	refractive index
m1 = 0.05	1.3343
m1 = 0.1	1.3368
m1 = 0.2	1.3415
m1 = 0.3	1.3458
m1 = 0.5	1.3542
m1 = 0.8	1.3656

mass density [kg/m3], [2]
Settings	m1 = 0.05	m1 = 0.1	m1 = 0.2	m1 = 0.3	m1 = 0.5	m1 = 0.8
288.15 K	1005.67	1012.18	1024.44	1036.52	1059.36	1089.54
293.15 K	1004.73	1011.2	1023.38	1035.39	1058.1	1088.1
298.15 K	1003.53	1009.97	1022.08	1034.03	1056.62	1086.46
303.15 K	1002.11	1008.5	1020.57	1032.45	1054.93	1084.64
308.15 K	1000.46	1006.83	1018.84	1030.68	1053.07	1082.65

CC(=O)NCCCCCCNC(C)=O [N,N'-diacetyl-1,6-hexanediamine] + O
[1]
Settings	refractive index
m1 = 0.0999	1.335
m1 = 0.1498	1.3365
m1 = 0.1998	1.338
m1 = 0.25	1.3396
m1 = 0.3001	1.3409
m1 = 0.3503	1.342
m1 = 0.3984	1.3433

mass density [kg/m3], [2]
Settings	m1 = 0.0999	m1 = 0.1498	m1 = 0.1998	m1 = 0.25	m1 = 0.3001	m1 = 0.3503	m1 = 0.3984
288.15 K	1000.16	1000.68	1001.23	1001.78	1002.34	1002.88	1003.42
293.15 K	999.201	999.691	1000.2	1000.72	1001.25	1001.75	1002.26
298.15 K	997.982	998.441	998.923	999.415	999.908	1000.38	1000.87
303.15 K	996.53	996.965	997.419	997.884	998.347	998.795	999.248
308.15 K	994.869	995.284	995.708	996.146	996.58	997.002	997.432

O=C[C@H](O)[C@@H](O)[C@H](O)[C@H](O)CO [D-glucose] + O
[1]
Settings	refractive index
m1 = 0.05	1.3331
m1 = 0.1	1.3343
m1 = 0.2	1.3368
m1 = 0.3	1.3392
m1 = 0.5	1.3443
m1 = 0.8	1.351

mass density [kg/m3], [2]
Settings	m1 = 0.05	m1 = 0.1	m1 = 0.2	m1 = 0.3	m1 = 0.5	m1 = 0.8
288.15 K	1002.58	1006	1012.64	1019.21	1031.87	1050.04
293.15 K	1001.65	1005.04	1011.63	1018.15	1030.73	1048.76
298.15 K	1000.46	1003.84	1010.38	1016.85	1029.34	1047.27
303.15 K	999.043	1002.39	–	1015.33	1027.75	1045.58
308.15 K	–	1000.75	–	1013.63	1025.96	1043.7

Source: the NIST ThermoML archive (doi:10.1021/je200421s)
